# Read-outs that look alike come from different tables or passages of the source.
# Assays:
# Type in all cases: biochemical
# FGFR2 = biological target: T1, FGFR2 (Homo sapiens, UniProt P21802); experiment: FGFR2 kinase activity inhibition assay (LanthaScreen TR-FRET)
# T1 construct: FGFR2's cytoplasmic domain [399-821 (terminal) amino acids]; purchased Carna 08-134
# Procedure: (§1) FGFR1 kinase activity was measured using Invitrogen LanthaScreen™ assay technology, which utilized fluorescently-labeled peptides and terbium-labeled antibodies to directly measure an amount of the phosphorylated substrate through time-resolved fluorescence energy transfer (TR-FRET). • ① The test compounds were diluted: starting from a concentration of 1 µM, with a buffer solution in a three-fold serial dilution, the buffer solution being composed of 50 mM HEPES, 10 mM MgCl2, 0.01% TritonX-100, 0.01% BSA, 4 mM DTT (pH 7.5), and 1% DMSO; • ② 0.01 nM recombinant human GST fusion protein FGFR1's cytoplasmic domain [398-822 (terminal) amino acids] (Carna: 08-133) was formulated into a 2 × solution, mixed well with the test compounds, and incubated at 23°C for 10 minutes; • ③ 28 nM Fluorescein-Poly GT peptide substrate (Life Technologies: PV3611) and 28 µM ATP were formulated into a 2 × solution, mixed well with the test compounds and enzyme in ②, and incubated at 23°C for 30 minutes; • ④ 10 µL of 2nM Tb-PY20 antibody (Life Technologies: PV3552) and 10 mM EDTA were added to quench the kinase reaction, and incubated at 22°C for 60 minutes. • ⑤ The reaction was measured using a PerkinElmer EnVision multimode plate reader through TR-FRET dual wavelength detection. • 1. The RFU values were copied from the Envision program. • 2. The ratio of RFU 520nm/RFU 495nm was calculated. • 3. The value of the ratio was converted to a percentage inhibition value. % Inhibition = (max-data)/(max-min) × 100 [formula]
# (§2) "Min" represents the ratio of the control without enzyme, "max" represents the ratio of the DMSO control, and "data" represents the ratio of the compounds in wells with different concentrations.
# (§3) "Top" refers to the maximum response, "Bottom" refers to the minimum response, and "HillSlope" refers to the slope of the curve.
# According to the same method as that in the FGFR1 kinase activity inhibition assay, the inhibitory activities against FGFR2, FGFR3 and FGFR4 were tested using FGFR2's cytoplasmic domain [399-821 (terminal) amino acids] (Carna: 08-134), FGFR3's cytoplasmic domain [436-806 (terminal) amino acids] (Carna: 08-135) and FGFR4's cytoplasmic domain [460-802 (terminal) amino acids] (Carna: 08-136), respectively. […]
# FGFR3 = biological target: T2, FGFR3 (Homo sapiens, UniProt P22607); experiment: FGFR3 kinase activity inhibition assay (LanthaScreen TR-FRET); settings: for Selectivity (X) FGFR1/FGFR3: ratio of IC50 FGFR1/FGFR3, selectivity towards FGFR3; for Selectivity (X) FGFR2/FGFR3: ratio of IC50 FGFR2/FGFR3, selectivity towards FGFR3; for Selectivity (X) FGFR4/FGFR3: ratio of IC50 FGFR4/FGFR3, selectivity towards FGFR3
# T2 construct: FGFR3's cytoplasmic domain [436-806 (terminal) amino acids]; purchased Carna 08-135
# Summary of the method: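 Read-out is TR-FRET, with the 520 nm/495 nm emission ratio normalised to DMSO (max) and enzyme-free (min) controls. Enzyme was the FGFR3 cytoplasmic domain, residues 436-806. EDTA (10 mM) stopped the reaction, followed by 60 min at 22 °C before reading.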
# FGFR1 = biological target: T3, FGFR1 (Homo sapiens, UniProt P11362); experiment: FGFR1 kinase activity inhibition assay (LanthaScreen TR-FRET)
# T3 construct: cytoplasmic domain [398-822 (terminal) amino acids]; purchased Carna 08-133
# Summary of the method: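 Emission ratio 520 nm/495 nm by TR-FRET after stopping reaction with 10 mM EDTA and 60 min incubation at 22°C. Inhibition normalized between no-enzyme (min) and DMSO (max) controls, then fitted to a four-parameter curve (Top, Bottom, HillSlope).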
# FGFR4 = biological target: T4, FGFR4 (Homo sapiens, UniProt P22455); experiment: FGFR4 kinase activity inhibition assay (LanthaScreen TR-FRET)
# T4 construct: FGFR4's cytoplasmic domain [460-802 (terminal) amino acids]; purchased Carna 08-136
# Procedure: as §1, §2, §3
# According to the same method as that in the FGFR1 kinase activity inhibition assay, the inhibitory activities against FGFR2, FGFR3 and FGFR4 were tested using FGFR2's cytoplasmic domain [399-821 (terminal) amino acids] (Carna: 08-134), FGFR3's cytoplasmic domain [436-806 (terminal) amino acids] (Carna: 08-135) and FGFR4's cytoplasmic domain [460-802 (terminal) amino acids] (Carna: 08-136), respectively. Table 1 reports the kinase activity inhibition results and selectivity towards FGFR3 of each compound.
# [1] = FGFR2 kinase, TR-FRET, read-out: IC50 (nM) FGFR2
# [2] = FGFR3 kinase, TR-FRET, read-out: IC50 (nM) FGFR3
# [3] = FGFR1 kinase, TR-FRET, read-out: IC50 (nM) FGFR1
# [4] = FGFR4 kinase, TR-FRET, read-out: IC50 (nM) FGFR4
# T1 sequence (P21802 399-821): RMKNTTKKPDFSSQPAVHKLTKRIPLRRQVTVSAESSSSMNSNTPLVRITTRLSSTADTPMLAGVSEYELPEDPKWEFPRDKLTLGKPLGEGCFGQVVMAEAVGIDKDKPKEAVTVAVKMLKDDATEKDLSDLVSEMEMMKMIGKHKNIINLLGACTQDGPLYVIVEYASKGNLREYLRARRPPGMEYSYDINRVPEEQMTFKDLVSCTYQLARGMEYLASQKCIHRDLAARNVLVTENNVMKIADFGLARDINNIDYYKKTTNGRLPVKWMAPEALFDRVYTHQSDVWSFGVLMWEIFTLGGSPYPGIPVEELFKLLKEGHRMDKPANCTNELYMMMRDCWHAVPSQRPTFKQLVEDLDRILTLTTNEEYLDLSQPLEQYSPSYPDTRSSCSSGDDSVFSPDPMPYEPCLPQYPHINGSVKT
# T2 sequence (P22607 436-806): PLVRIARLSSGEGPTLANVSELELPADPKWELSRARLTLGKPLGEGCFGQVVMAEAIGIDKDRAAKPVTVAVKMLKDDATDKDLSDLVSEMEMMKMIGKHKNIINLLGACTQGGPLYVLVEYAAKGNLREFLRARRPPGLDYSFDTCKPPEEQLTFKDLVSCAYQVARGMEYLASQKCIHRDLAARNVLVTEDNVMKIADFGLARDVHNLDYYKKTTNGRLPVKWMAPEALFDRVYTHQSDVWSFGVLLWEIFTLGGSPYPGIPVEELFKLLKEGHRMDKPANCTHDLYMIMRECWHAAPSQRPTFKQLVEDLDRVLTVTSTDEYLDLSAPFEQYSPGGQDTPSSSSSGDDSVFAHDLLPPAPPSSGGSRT
# T3 sequence (P11362 398-822): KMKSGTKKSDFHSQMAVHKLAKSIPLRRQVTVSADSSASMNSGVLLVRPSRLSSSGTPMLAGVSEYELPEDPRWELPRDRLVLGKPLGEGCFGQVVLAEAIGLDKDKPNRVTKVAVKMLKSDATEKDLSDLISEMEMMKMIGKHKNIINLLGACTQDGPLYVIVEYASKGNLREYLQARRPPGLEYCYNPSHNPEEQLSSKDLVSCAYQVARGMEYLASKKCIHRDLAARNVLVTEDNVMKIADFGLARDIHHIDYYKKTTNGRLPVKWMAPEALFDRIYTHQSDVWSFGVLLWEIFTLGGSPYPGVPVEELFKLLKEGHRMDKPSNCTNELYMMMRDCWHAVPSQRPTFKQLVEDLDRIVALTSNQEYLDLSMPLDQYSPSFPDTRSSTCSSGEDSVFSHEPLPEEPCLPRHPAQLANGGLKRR
# T4 sequence (P22455 460-802): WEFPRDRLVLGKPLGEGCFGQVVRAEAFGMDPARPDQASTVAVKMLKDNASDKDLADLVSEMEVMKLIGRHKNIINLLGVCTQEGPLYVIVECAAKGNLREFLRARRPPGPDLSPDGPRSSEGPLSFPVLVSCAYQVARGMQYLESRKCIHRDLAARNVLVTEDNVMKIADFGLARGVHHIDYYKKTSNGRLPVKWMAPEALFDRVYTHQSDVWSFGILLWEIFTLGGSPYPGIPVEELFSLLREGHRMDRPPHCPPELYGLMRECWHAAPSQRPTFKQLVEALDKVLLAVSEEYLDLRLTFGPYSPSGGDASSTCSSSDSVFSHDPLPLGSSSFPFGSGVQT
SMILES,IC50 (FGFR2; [1]),IC50 (FGFR3; [2]),Selectivity (X) FGFR1/FGFR3 (FGFR3),Selectivity (X) FGFR2/FGFR3 (FGFR3),Selectivity (X) FGFR4/FGFR3 (FGFR3),IC50 (FGFR1; [3]),IC50 (FGFR4; [4]),IC50 (FGFR2),IC50 (FGFR3),IC50 (FGFR1),IC50 (FGFR4)
"C[C@@H](Oc1ccc2[nH]nc(-c3cnn(CCn4ccnc4)c3)c2n1)c1c(Cl)cncc1Cl [Example 60, (R)-3-(1-(2-(1H-imidazol-1-yl)ethyl)-1H-pyrazol-4-yl)-5-(1-(3,5-dichloropyridin-4-yl)ethoxy)-1H-pyrazolo[4,3-b]pyridine]",1 to 10 nM,1 to 10 nM,A (A represents 1 ≤ multiple X<20),A (A represents 1 ≤ multiple X<20),B (B represents 20 ≤ multiple X<50),10 to 100 nM,10 to 100 nM,,,,
"C[C@@H](Oc1ccc2[nH]nc(-c3cnn(CCN4CCC5(CCNC5=O)CC4)c3)c2n1)c1c(Cl)cncc1Cl [Example 62, (R)-8-(2-(4-(5-(1-(3,5-dichloropyridin-4-yl)ethoxy)-1H-pyrazolo[4,3-b]pyridin-3-yl)-1H-pyrazol-1-yl)ethyl)-2,8-diazaspiro[4.5]dec an-1-one]",1 to 10 nM,< 1 nM,A (A represents 1 ≤ multiple X<20),A (A represents 1 ≤ multiple X<20),D (D represents 100 ≤ multiple X),1 to 10 nM,10 to 100 nM,,,,
"Cc1c[nH]c(-c2n[nH]c3ccc(C(=O)NCCN(C)C)cc23)n1 [Example 80, N-(2-(dimethylamino)ethyl)-3-(4-methyl-1H-imidazol-2-yl)-1H-indazole-5-carboxamide]",> 100 nM,10 to 100 nM,D (D represents 100 ≤ multiple X),D (D represents 100 ≤ multiple X),D (D represents 100 ≤ multiple X),> 100 nM,> 100 nM,,,,
"CC(Oc1ccc2[nH]nc(-c3cnn(C)c3)c2c1)c1cccc2ncc(Cl)cc12 (stereo not shown) [Example 94, 3-chloro-5-(1-((3-(1-methyl-1H-pyrazol-4-yl)-1H-indazol-5-yl)oxy)ethyl)quin oline]",,,C (C represents 50 ≤ multiple X<100),A (A represents 1 ≤ multiple X<20),B (B represents 20 ≤ multiple X<50),,,10 to 100 nM,10 to 100 nM,> 100 nM,> 100 nM
"CC(C)c1ccc2ncccc2c1C(C)Oc1ccc2[nH]nc(-c3cnn(C)c3)c2c1 (stereo not shown) [Example 107, 6-isopropyl-5-(1-((3-(1-methyl-1H-pyrazol-4-yl)-1H-indazol-5-yl)oxy)ethyl)qu inoline]",10 to 100 nM,1 to 10 nM,B (B represents 20 ≤ multiple X<50),A (A represents 1 ≤ multiple X<20),B (B represents 20 ≤ multiple X<50),> 100 nM,> 100 nM,,,,
"CC(Oc1ccc2[nH]nc(-c3cnn(C)c3)c2c1)c1c(C2CC2)ccc2ncccc12 (stereo not shown) [Example 116, 6-cyclopropyl-5-(1-((3-(1-methyl-1H-pyrazol-4-yl)-1H-indazol-5-yl)oxy)ethyl)qui noline]",10 to 100 nM,1 to 10 nM,B (B represents 20 ≤ multiple X<50),A (A represents 1 ≤ multiple X<20),B (B represents 20 ≤ multiple X<50),10 to 100 nM,> 100 nM,,,,
"[2H]C([2H])([2H])C(Oc1ccc2[nH]nc(-c3cnn(C)c3)c2c1)c1c(C)ccc2ncccc12 (stereo not shown) [Example 122, 6-methyl-5-(1-((3-(1-methyl-1H-pyrazol-4-yl)-1H-indazol-5-yl)oxy)ethyl-2,2,2-d3)quinoline]",1 to 10 nM,< 1 nM,B (B represents 20 ≤ multiple X<50),A (A represents 1 ≤ multiple X<20),B (B represents 20 ≤ multiple X<50),10 to 100 nM,10 to 100 nM,,,,
"CC(Oc1ccc2[nH]nc(-c3cnn(C)c3)c2c1)c1cccn2nccc12 (stereo not shown) [Example 132, 3-(1-methyl-1H-pyrazol-4-yl)-5-(1-(pyrazolo[1,5-a]pyridin-4-yl)ethoxy)-1H-indazole]",1 to 10 nM,< 1 nM,B (B represents 20 ≤ multiple X<50),A (A represents 1 ≤ multiple X<20),B (B represents 20 ≤ multiple X<50),10 to 100 nM,10 to 100 nM,,,,

# Continued, in another order:
IC50 (FGFR2; [1]),IC50 (FGFR3; [2]),Selectivity (X) FGFR1/FGFR3 (FGFR3),Selectivity (X) FGFR2/FGFR3 (FGFR3),Selectivity (X) FGFR4/FGFR3 (FGFR3),IC50 (FGFR1; [3]),IC50 (FGFR4; [4]),SMILES,IC50 (FGFR2),IC50 (FGFR3),IC50 (FGFR1),IC50 (FGFR4)
1 to 10 nM,1 to 10 nM,A (A represents 1 ≤ multiple X<20),A (A represents 1 ≤ multiple X<20),B (B represents 20 ≤ multiple X<50),10 to 100 nM,10 to 100 nM,"C[C@@H](Oc1ccc2[nH]nc(-c3cnn(CCc4cccnc4)c3)c2n1)c1c(Cl)cncc1Cl [Example 61, (R)-5-(1-(3,5-dichloropyridin-4-yl)ethoxy)-3-(1-(2-(pyridin-3-yl)ethyl)-1H-pyrazol-4-yl)-1H-pyrazolo[4,3-b]pyridine]",,,,
> 100 nM,10 to 100 nM,C (C represents 50 ≤ multiple X<100),B (B represents 20 ≤ multiple X<50),D (D represents 100 ≤ multiple X),> 100 nM,> 100 nM,"CNCCNC(=O)c1ccc2[nH]nc(-c3cn(C)nn3)c2c1 [Example 74, 3-(1-methyl-1H-1,2,3-triazol-4-yl)-N-(2-(methylamino)ethyl)-1H-indazole-5-carboxamide]",,,,
1 to 10 nM,1 to 10 nM,B (B represents 20 ≤ multiple X<50),A (A represents 1 ≤ multiple X<20),B (B represents 20 ≤ multiple X<50),10 to 100 nM,10 to 100 nM,"CC(Oc1ccc2[nH]nc(-c3cnn(C)c3)c2c1)c1cccc2nnccc12 (stereo not shown) [Example 119, 5-(1-((3-(1-methyl-1H-pyrazol-4-yl)-1H-indazol-5-yl)oxy)ethyl)cinnoline]",,,,
1 to 10 nM,< 1 nM,B (B represents 20 ≤ multiple X<50),A (A represents 1 ≤ multiple X<20),B (B represents 20 ≤ multiple X<50),10 to 100 nM,10 to 100 nM,"CC(Oc1ccc2[nH]nc(-c3cnn(C)c3)c2c1)c1cc(F)cc2ncccc12 (stereo not shown) [Example 124, 7-fluoro-5-(1-((3-(1-methyl-1H-pyrazol-4-yl)-1H-indazol-5-yl)oxy)ethyl)qu inoline]",,,,
1 to 10 nM,1 to 10 nM,B (B represents 20 ≤ multiple X<50),A (A represents 1 ≤ multiple X<20),C (C represents 50 ≤ multiple X<100),10 to 100 nM,> 100 nM,"Cc1ccnc2cccc(C(C)Oc3ccc4[nH]nc(-c5cnn(C)c5)c4c3)c12 (stereo not shown) [Example 126, 4-methyl-5-(1-((3-(1-methyl-1H-pyrazol-4-yl)-1H-indazol-5-yl)oxy)ethyl)qu inoline]",,,,

# Source: patent publication EP4644383A1 (Jiangsu Yahong Meditech Co., Ltd., priority 2022, dated 2024)
